# Assay results published in patent US20100120858A1, “Piperidine Derivatives” (Pfizer Inc., priority 2006, published 2010).
# Counter-ions that a name gives are not always drawn.
# Legend:
# [1] = molecular target: human norepinephrine transporter (Homo sapiens, UniProt P23975); assay: Human norepinephrine (hNET) receptor binding, [125I]-RTI-55; conditions: membranes of HEK-293 cells transfected with human norepinephrine transporter cDNA; 50 pM [125I]-RTI-55; IC50 converted by Cheng-Prusoff
# Procedure, shortened: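 Membranes from HEK-293 cells expressing human NET, incubated 90 min at room temperature with 50 pM [125I]-RTI-55 and compound (10^−5 to 10^−12 M) in Krebs-HEPES pH 7.4. Nonspecific binding defined with 10 μM desipramine; filter-bound counts gave IC50, converted to Ki by Cheng-Prusoff.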
# [2] = molecular target: human serotonin transporter (Homo sapiens, UniProt P31645); assay: Human serotonin (hSERT) receptor binding, [125I]-RTI-55; conditions: membranes of HEK-293 cells transfected with human serotonin transporter cDNA, IC50 converted by Cheng-Prusoff
# human serotonin transporter, sequence (P31645 whole entry): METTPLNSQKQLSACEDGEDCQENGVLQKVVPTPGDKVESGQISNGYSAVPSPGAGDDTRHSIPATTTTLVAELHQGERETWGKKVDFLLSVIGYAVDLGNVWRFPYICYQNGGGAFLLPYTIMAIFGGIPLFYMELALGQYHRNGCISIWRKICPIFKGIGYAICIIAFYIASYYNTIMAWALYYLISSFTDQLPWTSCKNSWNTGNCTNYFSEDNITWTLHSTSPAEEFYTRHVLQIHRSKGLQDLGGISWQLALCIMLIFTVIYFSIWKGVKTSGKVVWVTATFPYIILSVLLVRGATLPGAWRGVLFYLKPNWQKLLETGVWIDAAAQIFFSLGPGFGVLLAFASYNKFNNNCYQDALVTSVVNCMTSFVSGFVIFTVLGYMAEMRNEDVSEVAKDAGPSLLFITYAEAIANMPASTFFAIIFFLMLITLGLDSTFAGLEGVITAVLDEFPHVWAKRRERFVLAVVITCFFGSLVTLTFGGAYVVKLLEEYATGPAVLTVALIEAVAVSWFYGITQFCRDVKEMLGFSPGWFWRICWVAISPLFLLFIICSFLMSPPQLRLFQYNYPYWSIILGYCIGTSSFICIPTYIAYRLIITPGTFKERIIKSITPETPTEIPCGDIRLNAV
# Procedure, shortened: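 Membranes from HEK-293 cells expressing human SERT were incubated 90 min at room temperature in Krebs-HEPES buffer pH 7.4 with […] [125I]-RTI-55 and compound (10^−5 to 10^−12 M), in duplicate. Nonspecific binding defined with 10 μM citalopram; IC50 converted to Ki by Cheng-Prusoff.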
# [3] = test system: capsaicin-induced mechanical allodynia; assay: Capsaicin-induced mechanical allodynia rat model; format: in vivo; conditions: sc, male Sprague-Dawley rats, single subcutaneous 10 mg/kg dose on Day 7, measurement 1 hour post dose, mean of eight animals
# Description: On Day 0, male Sprague-Dawley rats (about 150 g each) in the dark cycle were placed in suspended wire-bottom cages and allowed to acclimate for 0.5 hour in a darkened, quiet room. The Day 0 paw withdrawal threshold (PWT) was determined on the left hind paw by Von Frey hair assessment using the Dixon up and down method. After assessment, the plantar muscle of the right hind paw was injected with 100 μL of capsaicin (0.25% weight/volume (w/v) in 10% ethanol, 10% Tween 80, in sterile saline).
# On Day 6, the PWT of the left hind paw (contralateral from the injected paw) was determined for each animal. Animals on Day 6 with PWT≦11.7 g were considered allodynic responders and were regrouped so that the animals in each cage had similar mean PWT values.
# On Day 7, the responders were dosed subcutaneously with 10 mg of the test compound per kg of rat body weight in vehicle, or were administered vehicle (10 mL/kg) alone. The vehicle was phosphate buffered saline containing 2% CREMOPHOR® EL (BASF). The contralateral (i.e., left hind paw) PWT values were determined at 1 hour after the single dose, with the investigator blinded to the dosing scheme. For each animal, the Day 6 PWT value was subtracted from the Day 7, 1 hour PWT value for the 10 mg/kg doses of test compound to give a delta PWT value (Delta PWT (drug)), which represents the change in PWT due to the 1 hour drug treatment. In the case of vehicle-alone treated animals, the Day 6 PWT value was subtracted from the Day 7, 1 hour PWT for the 10 mL/kg doses of vehicle and the values averaged (mean Delta PWT (vehicle)). In addition, the Day 6 PWT was subtracted from the Day 0 PWT to give the baseline level (Baseline) of allodynia present in each animal. Percent inhibition of allodynia of each animal, normalized for vehicle controls, was determined using the following formula: […]
# human norepinephrine transporter, sequence (P23975 whole entry): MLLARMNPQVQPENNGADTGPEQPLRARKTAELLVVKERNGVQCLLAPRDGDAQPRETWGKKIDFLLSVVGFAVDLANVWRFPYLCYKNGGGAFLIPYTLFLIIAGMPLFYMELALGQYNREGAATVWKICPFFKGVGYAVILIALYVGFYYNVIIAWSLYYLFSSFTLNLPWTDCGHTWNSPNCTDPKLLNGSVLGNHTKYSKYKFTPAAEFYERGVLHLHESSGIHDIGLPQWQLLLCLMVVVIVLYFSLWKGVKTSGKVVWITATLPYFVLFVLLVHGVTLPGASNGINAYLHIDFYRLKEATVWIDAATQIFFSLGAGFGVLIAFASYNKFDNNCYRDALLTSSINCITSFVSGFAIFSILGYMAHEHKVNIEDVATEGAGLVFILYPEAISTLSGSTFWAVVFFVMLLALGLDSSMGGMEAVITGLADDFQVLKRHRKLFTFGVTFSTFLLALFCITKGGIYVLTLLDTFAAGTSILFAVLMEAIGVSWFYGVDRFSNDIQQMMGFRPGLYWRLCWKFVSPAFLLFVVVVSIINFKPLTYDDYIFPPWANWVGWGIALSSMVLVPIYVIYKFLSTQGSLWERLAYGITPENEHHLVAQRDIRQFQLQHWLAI
Ki [1],Ki [2],melting point,Compound,inhibition in vivo at 10 mg/kg [3]
7.4 nM,170 nM,,"COc1cc(C)ccc1Oc1nc(C)ccc1OC[C@H]1CCCNC1 [Example 4, (S)-2-(2-methoxy-4-methyl-phenoxy)-6-methyl-3-(piperidin-3-ylmethoxy)-pyridine fumaric acid]",43%
16 nM,360 nM,,"COc1ccc(Oc2nc(C)ccc2OC[C@H]2CCCNC2)cc1 [Example 6, (S)-2-(4-methoxy-phenoxy)-6-methyl-3-(piperidin-3-ylmethoxy)-pyridine fumaric acid]",16%
10.3 nM,159 nM,,"Cc1ccc(Oc2nc(C)ccc2OC[C@H]2CCCNC2)cc1 [Example 8, (S)-2-(4-methyl-phenoxy)-6-methyl-3-(piperidin-3-ylmethoxy)-pyridine fumaric acid]",22%
18 nM,180 nM,,"CCc1ccc(Oc2nc(C)ccc2OC[C@H]2CCCNC2)c(OC)c1 [Example 11, (S)-2-(4-ethyl-2-methoxy-phenoxy)-6-methyl-3-(piperidin-3-ylmethoxy)-pyridine fumaric acid]",9%
8.7 nM,120 nM,,"COc1cc(Cl)ccc1Oc1nc(C)ccc1OC[C@H]1CCCNC1 [Example 12, (S)-2-(4-chloro-2-methoxy-phenoxy)-6-methyl-3-(piperidin-3-ylmethoxy)-pyridine fumaric acid]",88%
2.8 nM,40 nM,,"Cc1ccc(Oc2nc(C)ccc2OC[C@H]2CCCNC2)c(Cl)c1 [Example 14, (S)-2-(2-chloro-4-methyl-phenoxy)-6-methyl-3-(piperidin-3-ylmethoxy)-pyridine fumaric acid]",48%
5.3 nM,28 nM,,"Cc1ccc(OC[C@H]2CCCNC2)c(Oc2ccc(Cl)cc2F)n1 [Example 23, (S)-2-(4-chloro-2-fluoro-phenoxy)-6-methyl-3-(piperidin-3-ylmethoxy)-pyridine fumaric acid]",65%
3.3 nM,72 nM,,"Cc1ccc(OC[C@H]2CCCNC2)c(Oc2ccc(F)cc2F)n1 [Example 25, (S)-2-(2,4-difluoro-phenoxy)-6-methyl-3-(piperidin-3-ylmethoxy)-pyridine fumaric acid]",77%
5.3 nM,130 nM,,"Cc1ccc(OC[C@H]2CCCNC2)c(Oc2cc(F)c(F)cc2F)n1 [Example 29, (S)-6-methyl-2-(2,4,5-trifluoro-phenoxy)-3-(piperidin-3-ylmethoxy)-pyridine fumaric acid]",11%
4.8 nM,82 nM,,"Cc1ccc(OC[C@H]2CCCNC2)c(Oc2c(F)cc(F)cc2F)n1 [Example 44, (S)-6-methyl-2-(2,4,6-trifluoro-phenoxy)-3-(piperidin-3-ylmethoxy)-pyridine hydrochloride]",18%
8.4 nM,29 nM,,"Cc1ccc(OC[C@H]2CCCNC2)c(Oc2c(F)cc(Cl)cc2F)n1 [Example 45, (S)-2-(4-chloro-2,6-difluoro-phenoxy)-6-methyl-3-(piperidin-3-ylmethoxy)-pyridine hydrochloride]",1%
6100 nM,7200 nM,165 to 167 °C (dec.),"O=C(O)/C=C/C(=O)O.c1ccc(COc2ncccc2OC[C@H]2CCCNC2)cc1 [Example 77, (S)-2-benzyloxy-3-(piperidin-3-ylmethoxy)-pyridine fumaric acid]",
210 nM,3700 nM,146 to 148 °C (dec.),"O=C(O)/C=C/C(=O)O.c1ccc(CCOc2ncccc2OC[C@H]2CCCNC2)cc1 [Example 82, (S)-2-phenethyloxy-3-(piperidin-3-ylmethoxy)-pyridine fumaric acid]",
210 nM,10 nM,141 to 142 °C (dec.),"O=C(O)/C=C/C(=O)O.c1ccc(CCCOc2ncccc2OC[C@H]2CCCNC2)cc1 [Example 83, (S)-2-(3-phenyl-propoxy)-3-(piperidin-3-ylmethoxy)-pyridine fumaric acid]",
410 nM,4700 nM,141 to 143 °C (dec.),"O=C(O)/C=C/C(=O)O.c1ccc(Oc2ncccc2OC[C@@H]2CCCNC2)cc1 [Example 94, (R)-2-phenoxy-3-(piperidin-3-ylmethoxy)-pyridine fumaric acid]",
11 nM,4800 nM,137 to 140 °C (dec.),"Cl.c1ccc(COc2ccccc2OC[C@H]2CCCNC2)cc1 [Example 99, (S)-3-(2-benzyloxy-phenoxymethyl)-piperidine hydrochloride]",
20 nM,> 9700 nM,149 to 150 °C,"Cl.c1ccc(OC2CCCCC2)c(OC[C@H]2CCCNC2)c1 [Example 101, (S)-3-(2-cyclohexyloxy-phenoxymethyl)-piperidine hydrochloride]",

Compound,Ki [1],Ki [2],melting point,inhibition in vivo at 10 mg/kg [3]
"CC(C)COc1ccccc1OCC1CCCNC1.Cl (stereo not drawn) [Example 102, 3-(2-isobutoxy-phenoxymethyl)-piperidine hydrochloride]",32 nM,3960 nM,162 °C,
